We go through 1 compound from US8008325B2, “Plasma carboxypeptidase B inhibitors” (Bayer Schering Pharma AG, priority 2002, dated 2011).

The structures appear in SMILES notation.

For assay [1], the target named is T1, activated plasma carboxypeptidase B (Homo sapiens, UniProt Q96IY4).
T1 sequence (Q96IY4 115-423): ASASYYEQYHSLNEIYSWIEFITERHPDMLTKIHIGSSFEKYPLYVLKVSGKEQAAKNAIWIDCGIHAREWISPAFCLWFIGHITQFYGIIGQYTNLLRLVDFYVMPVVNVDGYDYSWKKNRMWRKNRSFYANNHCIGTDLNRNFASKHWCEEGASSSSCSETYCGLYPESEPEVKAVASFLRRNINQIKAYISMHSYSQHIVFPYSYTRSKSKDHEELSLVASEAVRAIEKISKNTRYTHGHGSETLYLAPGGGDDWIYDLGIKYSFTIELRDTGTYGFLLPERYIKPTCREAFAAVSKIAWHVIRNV
Nature of the assay: Assay for activated plasma carboxypeptidase B activity (hippuryl-Arg hydrolysis, colorimetric). Format: biochemical. Conditions: used as positive standard; hippuryl-Arg final 1 mM. As to the method:
The compounds of the invention were tested in an in vitro assay according to the method described in Hendriks et al., “Colorimetric assay for carboxypeptidase N in serum”, Clinica Chimica Acta (1986), Vol. 157, pp. 103-108 and Zhao et al., “Identification and characterization of two thrombin-activatable fibrinolysis inhibitor isoforms”, Thromb. Haemost. (1998), Vol. 80, pp. 949-955.
Activation of Plasma Carboxypeptidase B:
The following reagents were mixed together at a total volume of 200 μL:
The above mixture was incubated for 15 minutes at ambient temperature. The activation process was stopped by the addition of 2 μl of PPACK, D-Phe-Pro-Arg chloromethylketone (100 μM, final 1.0 μM). The mixture was then diluted 1:36 with the activation buffer containing 0.1% BSA. The resulting diluted mixture was kept on ice. […] The resulting sample mixture was incubated for 2 minutes at ambient temperature. To the sample mixture was added 12 μL of 5 mM hippuryl-Arg (final 1 mM (=Km)). The resulting sample mixture was incubated at ambient temperature for 30 minutes. At the end of the reaction, the product, hippuric acid, in the sample mixture was converted to a chromogen by adding the following to the mixture: • 80 μL of 0.2 M sodium phosphate buffer, pH 8.3 • 60 μL of 3% cyanuric chloride in dioxane (w/v). […] Optical density of the samples was measured at 382 nm.

Assay [2] deals with T2, plasma carboxypeptidase B (Homo sapiens, UniProt Q96IY4).
T2 sequence (Q96IY4 115-423): T1 sequence (Q96IY4 115-423)
As to conditions: t-PA-induced lysis; cited from earlier work.

For orientation: IC50 means the concentration that inhibits the measured activity by half. The compound `NC(N)=NCCSC(CC(=O)O)C(=O)O` (centres unmarked) [GEMSA, guanidinoethyl-mercaptosuccinic acid] displayed an IC50 in assay [1] of 35 µM. Besides, the “effect on the inhibitory effect of plasma carboxypeptidase B on clot lysis” value in assay [2] is “blocked the inhibitory effect of plasma carboxypeptidase B on clot lysis”.
